SMILES strings stand for the structures.

Series [1] concerns TGF-β1. Kind of series: TGF-β1 concentration in ischemic cell cultures. It is filed as cell-based. To be noted: added to ischemic cultures (20-minute ischemia). The text has this:
(§1) The compounds of the invention were used to produce a neuroprotective effect in both in vitro and in vivo cell culture models of stroke.

In series [2] the test system is TGF-β2. Description: TGF-β2 concentration in ischemic cell cultures. The class given is cell-based. Conditions: added to ischemic cultures (20-minute ischemia).
Source text: as §1

The test system of series [3] is ischemic cultures. Description: Neuroprotection in ischemic cell culture model of stroke with neutralizing antibodies. To be noted: for neuroprotective effect in presence of FGF antibody: FGF neutralizing antibody added; for neuroprotective effect in presence of TGF-β neutralizing antibodies: TGF-β neutralizing antibodies added. The class given is cell-based. As for the experimental part:
as §1
TGF-β neutralizing antibodies were then added to determine if the neuroprotective effect would be blocked. The neuroprotective effect of 2-(phosphonomethyl)-pentanedioic acid was blocked by TGF-βs neutralizing bodies in this cell culture model. However, when other growth factor antibodies, such as FGF antibody, were added, the neuroprotective effect of 2-(phosphonomethyl)-pentanedioic acid was not reversed in culture.

For series [4], the system named is TGF-β1. Description: TGF-β1 levels by microdialysis in MCAO rats. It is filed as in vivo. Conditions: FIG. 6.
In series [5] the test system is middle cerebral artery occlusion (MCAO) in rats. Kind of series: Neuroprotection following middle cerebral artery occlusion (MCAO) in rats. It is filed as in vivo. An excerpt: The effect of TGF-β neutralizing antibodies on the neuroprotection afforded by 2-(phosphonomethyl)-pentanedioic acid following middle cerebral artery occlusion (MCAO) in rats was also studied to give a more relevant in vivo model of stroke.
Thus, it was appreciated that the regulation of TGF-βs may have implications, not only in its utility in stroke, but also in other neurological and psychiatric diseases. In addition, this mechanism may have implications in myelination, prostate cancer, inflammation, diabetes, and angiogenesis.

In series [6] the test system is mice. Description: In vivo toxicity study in mice. Conditions: for Survival Rate After 5 days (%): injected. An excerpt:
The in vivo toxicological effect of NAALADase inhibition has been examined in mice. […] Representative disclosure may be found in U.S. Pat. Nos. 5,672,592, 5,795,877, 5,863,536 and 5,880,112, and allowed U.S. patent applications Ser. Nos. 08/825,997, 08/833,628, 08/835,572 and 08/842,360, for which the issue fees have been paid, the entire contents of which patents and applications are herein incorporated by reference.
The mice were observed two times per day for 5 consecutive days.

For series [7], the target named is T1, Myeloperoxidase (MPO) isolated from human polymorphonuclear leukocytes (Homo sapiens, UniProt P05164).
T1 construct: Myeloperoxidase (MPO) isolated from human polymorphonuclear leukocytes; purchased Calbiochem 475911; host or cells: human polymorphonuclear leukocytes (natural source)
T1 sequence (P05164 279-745 limits assumed): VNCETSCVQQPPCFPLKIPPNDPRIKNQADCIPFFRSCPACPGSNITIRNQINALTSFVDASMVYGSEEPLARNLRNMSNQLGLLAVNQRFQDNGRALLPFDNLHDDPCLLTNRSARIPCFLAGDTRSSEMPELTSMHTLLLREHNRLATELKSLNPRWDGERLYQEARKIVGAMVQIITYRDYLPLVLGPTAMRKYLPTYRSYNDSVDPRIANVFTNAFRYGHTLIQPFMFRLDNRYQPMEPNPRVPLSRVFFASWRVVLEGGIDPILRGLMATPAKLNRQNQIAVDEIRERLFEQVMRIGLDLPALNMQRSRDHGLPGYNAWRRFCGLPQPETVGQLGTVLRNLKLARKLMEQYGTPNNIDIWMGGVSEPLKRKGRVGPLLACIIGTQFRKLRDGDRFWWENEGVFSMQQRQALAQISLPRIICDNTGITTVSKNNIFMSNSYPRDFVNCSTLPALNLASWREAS
T1 sequence (P05164 165-273 limits assumed): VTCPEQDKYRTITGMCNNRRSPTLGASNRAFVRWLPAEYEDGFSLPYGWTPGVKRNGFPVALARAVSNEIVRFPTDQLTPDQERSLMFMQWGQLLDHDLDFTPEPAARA
Conditions: guaiacol substrate, reference data; cited from earlier work.

Setting [8] is: listed as 2-(phosphonomethyl)-pentanedioic acid.

Turning to `O=C(O)CCC(CP(=O)(O)O)C(=O)O` (stereo not drawn) [Compound 3, 2-(phosphonomethyl)-pentanedioic acid], the “level of TGF-β1” value in series [1] is reported as “increased significantly”. The “level of TGF-β2” value in series [2] is “increased significantly”. For the same compound, the “neuroprotective effect in presence of FGF antibody” value in series [3] (setting [8]) is “not reversed”; in series [3] (listed as compound 3), “non-reversal”. Also, the figures for the “neuroprotective effect in presence of TGF-β neutralizing antibodies” value in series [3] (setting [8]) and in series [3] (listed as compound 3) were “blocked” and “reversal”, respectively. Moreover, in series [4], the “TGF-β1 during occlusion and reperfusion” value is reported as “significant rise”. In addition, the neuroprotection entry in series [5] (MCAO rats) is “provided neuroprotection”. Further, the “neuroprotective effect after TGF-β neutralizing antibodies” value in series [5] (MCAO rats pre-treated with TGF-β neutralizing antibodies, FIG. 5) is on record as “significantly attenuated”. Also, the “Survival Rate After 5 days (%)” value in series [6] (dose 1 mg/kg), in series [6] (dose 5 mg/kg), in series [6] (dose 10 mg/kg), in series [6] (dose 30 mg/kg), in series [6] (dose 100 mg/kg) and in series [6] (dose 300 mg/kg) was 100% throughout. Besides, in series [6] (dose 500 mg/kg), the “Survival Rate After 5 days (%)” value is recorded as 66.7%. In series [6] (observed for 5 days), the “toxicological effect in vivo” value is reported as “non-toxic”.
As a reminder, the IC50 is the concentration that gives 50% inhibition. In the case of `CC(Cc1ccc(O)c(O)c1)C(C)Cc1ccc(O)c(O)c1` (stereo not drawn) [NDGA (Nordihydroguaretic Acid), Nordihydroguaretic Acid], in series [7], the IC50 was 1000 nM.

The record behind these values is patent US20030017965A1, “Methods for treating certain diseases using naaladase inhibitors” (priority 1998, published 2003).
